In patent publication US20110104179A1 (priority 2009, published 2011):
pIC50, pKi: −log10 of the molar value. “And” between values parts separate entries of the source, which are not always exact repeats. Equal entries are not always repeated. Where two headings read alike, the source gives them in different places. Ends that are not written are not given here.

Tests used:
RgpB = RgpB (Porphyromonas gingivalis, UniProt P95493); conditions: comparison value, cited from earlier work
[1] = tested on: Arginine-gingipains (P. gingivalis W50 whole cell proteases); assay type: cell-based, Porphyromonas gingivalis W50
[2] = target: Lysine-gingipains (P. gingivalis ATCC 33277 whole cell proteases) (Porphyromonas gingivalis, UniProt B2RLK2); assay type: cell-based, Porphyromonas gingivalis ATCC 33277; conditions: for Activity with ATCC33277, Lys-gingipains: peptide alone 100 μM, activity ± standard deviation
[3] = tested on: Arginine-gingipains (P. gingivalis ATCC 33277 whole cell proteases); assay type: cell-based, Porphyromonas gingivalis ATCC 33277
[4] = 200 μM peptide concentration (FIG. 2, Table 2)

Compound	pKi (RgpB; read-out: RgpB Ki)	pIC50 (RgpB; read-out: IC50 against RgpB)	Protease activity (%) of the Arginine-gingipains, W50 Whole Cell Proteases [1]	Protease activity (%) of the Lysine-gingipains, ATCC 33277 Whole Cell Proteases ([2]; 100 μM peptide)	Protease activity (%) of the Lysine-gingipains, ATCC 33277 Whole Cell Proteases ([2]; 200 μM peptide)	inhibition of whole cell Lys-specific proteolytic activity [2, 4]	Protease activity (%) of the Lysine-gingipains, ATCC 33277 Whole Cell Proteases ([2]; 300 μM peptide)	inhibition of whole cell Lys-specific proteolytic activity ([2]; concentration not given)	Activity with ATCC33277, Lys-gingipains [2]	Activity with ATCC33277, Arg-gingipains [3]	Protease activity (%) of the Arginine-gingipains, ATCC 33277 Whole Cell Proteases [3]	inhibition of whole cell Arg-specific proteolytic activity [3]
[H]/N=C(\N/C(=N/[H])NCCCCCCNC(=N)NC(=N)Nc1ccc(Cl)cc1)Nc1ccc(Cl)cc1 [chlorhexidine]	3.58	–	–	–	–	–	–	–	–	–	–	–
C[C@H]1c2cccc(O)c2C(=O)C2=C(O)[C@]3(O)C(=O)C(C(N)=O)=C(O)[C@@H](N(C)C)[C@@H]3[C@@H](O)[C@@H]21 [doxycycline]	–	5.52	–	–	–	–	–	–	–	–	–	–
LPQEVLNENLLRF [αS1-casein(11-23)]	–	–	22%	64%	43%	~60%	34%	~60%	2.73 ± 0.60	18.00 ± 3.53	38% and 39% and 62%	~70% and 40% and ~60%
YQEPVLGPVRGPF [β-casein(193-205)]	–	–	–	–	–	–	–	not as potent	–	–	–	–
YQEPVLGPVRGPFPIIV [β-casein(193-209)]	–	–	46%	71%	59%	50%	49%	40-50%	3.03 ± 1.20	20.03 ± 2.51	50% and 69%	50% and 30% and 40-50%
